Source: paper PMC8344022, “Small-molecule inhibitor of AF9/ENL-DOT1L/AF4/AFF4 interactions suppresses malignant gene expression and tumor growth” (Theranostics, 2021)

Assays:
[1] = molecular target: T1, AF9-DOT1L interaction (Homo sapiens, UniProt P42568); test: Alpha assay, AF9 AHD-DOT1L peptide interaction; assay type: binding; details: read-out: IC50, inhibition of AF9-DOT1L interaction
T1 construct: cDNA for human AF9 AHD domain (475-568) and ENL AHD domain (489-559) was synthesized; made in house; host or cells: E. coli BL21(DE3)
T1 sequence (P42568 475-568): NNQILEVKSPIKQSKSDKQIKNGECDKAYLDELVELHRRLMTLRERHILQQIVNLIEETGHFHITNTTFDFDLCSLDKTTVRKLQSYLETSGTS
From the text: We developed an Alpha (amplified luminescent proximity homogeneous assay) assay to determine the binding and inhibition of the PPI between maltose-binding protein (MBP)-tagged AF9 AHD and a biotin-labeled DOT1L peptide, using AlphaLisa streptavidin donor beads and anti-MBP acceptor beads. Laser excitation to the donor beads generates singlet oxygen radicals, which can travel for <200 nm in solution and cannot reach the free acceptor beads. The PPI brings the DOT1L coated donor beads and AHD coated acceptor beads together, allowing the radicals to activate the acceptor beads and produce luminescence. […] We also developed a fluorescence polarization (FP) assay. A fluorescein-labeled DOT1L peptide has a higher freedom in solution with a lower polarization value.
(§1) Alpha assays. Alpha assays were developed using Perkin-Elmer AlphaLisa anti-MBP kit, which contains streptavidin donor beads and anti-MBP acceptor beads. The assay was performed using a MBP-protein (5 nM), a biotinylated peptide (40 nM), and increasing concentrations of a compound in 25 µL buffer (PBS with 0.5 % BSA, pH 7.5) in 384-well plates according to the manufacturer's protocol and measured with a Tecan SPARK microplate reader. Data were imported into Prism (version 5.0), and IC50 values from 3 independent experiments with standard deviation were obtained by using a standard dose-response curve fitting.

[2] = molecular target: T2, AF9-AFF4 interaction (Homo sapiens, UniProt P42568); test: Alpha assay, AF9-AFF4 interaction; assay type: binding; details: read-out: IC50, inhibition of AF9-AFF4 interaction
T2 construct: cDNA for human AF9 AHD domain (475-568) and ENL AHD domain (489-559) was synthesized; made in house; host or cells: E. coli BL21(DE3)
Method: (§2) ENL is also a major MLL fusion partner (~10%). The AHD domains of human ENL and AF9 share a high homology with 82% identity and 89% similarity (Figure S1A). […] Our attempts to develop an Alpha assay for ENL-DOT1L failed. […] Compound 1's activity against ENL-DOT1L was therefore not determined.
as §1

[3] = molecular target: T3, ENL-AFF4 interaction (Homo sapiens, UniProt Q03111); test: Alpha assay, ENL-AFF4 interaction; assay type: binding; details: read-out: IC50, inhibition of ENL-AFF4 interaction
T3 construct: ENL AHD domain (489-559) was synthesized (by Genscript) and inserted into the pMAL c5X expression plasmid; made in house; host or cells: E. coli BL21(DE3)
Method: as §2, §1

[4] = molecular target: T4, AF9 AHD bound to DOT1L-coated beads (Homo sapiens, UniProt P42568); test: Western blot based pull-down assay; assay type: binding; details: increasing concentrations
T4 construct: cDNA for human AF9 AHD domain (475-568) and ENL AHD domain (489-559) was synthesized; made in house; host or cells: E. coli BL21(DE3)
Method: A non-optical pull-down assay was used to further validate compound 1. DOT1L-coated beads were incubated with AF9 AHD in the presence of increasing concentrations of 1.
Western blot based pull-down assay. Biotinylated DOT1L peptide (0.25 mg/mL) was incubated with streptavidin agarose beads in PBS containing 0.1% Triton X-100 (400 µL) for 3h to yield, after washing, DOT1L-coated beads. MBP-AF9 AHD (0.2 µM, 40 µL) was pre-incubated with a compound for 30 min before adding to the beads. After 6 hours incubation at 4 °C, the beads were collected, thoroughly washed, and subjected to SDS-PAGE and analyzed by Western blot using an MBP Mouse mAb (#2396, Cell signaling).

[5] = molecular target: DOT1L (Homo sapiens, UniProt Q8TEK3); test: DOT1L enzyme inhibition; assay type: biochemical; details: at 100 µM (Figure S3: 30 or 100 µM)
Method: Inhibition of DOT1L, LSD1 and p300 was performed using our previously reported methods, [37], [38].
LSD1, and p300 histone acetyltransferase at 30 or 100 µM, using our previous reported methods [Ref. 36, 37,
(1 picture or pasted object on this page, not shown here)

[6] = system: HoxA9, Meis1 and Myc expression in MV4;11 cells; test: qPCR of MLL target genes; assay type: cell-based; details: 4 days
Method: (§3) Next, compound 1 was tested for its ability to change expression of characteristic MLL-r leukemia genes HoxA9, Meis1 and Myc. Myc is also overexpressed in a broad range of AML and other cancers. […] (Figure S5), presumably because SEC is not recruited there.
(§4) RNA extraction and Quantitative real-time PCR (qPCR). 10^5 cells/ml were incubated with a compound for 4 days and the RNA was extracted using RNeasy mini kit (#74104, Qiagen). 100-1000 ng of total RNA was reverse transcribed using iScript™ Reverse Transcription Supermix (Bio-Rad) using the manufacturer's protocol. Quantitative real-time PCR was carried out using Fast SYBR Green Master Mix (Applied Biosystems) according to the manufacturer's instructions. Measurements were performed in triplicate, using GAPDH as the reference gene. Real-time PCR was performed using Biosystems Step One Plus detection system. The following sequences of primers are used: […]

[7] = system: HoxA9, Meis1 and Myc expression in Molm-13 cells; test: qPCR of MLL target genes; assay type: cell-based; details: 4 days
Method: as §3, §4

[8] = system: MLL-r leukemia cells; test: Cytospin/Wright-Giemsa staining; assay type: cell-based; details: 5 μM for 5 days
Method: Cytospin/Wrigth-Giemsa staining. The MV4;11 and Molm-13 cells were plated in 6-well plates (2.5 mL/well) at an initial concentration of 10^5 cells/mL and treated with a compound or DMSO at 37 °C in a 5% CO2 incubator for 5 days. Cytospins were performed to smear cells (100 µL, 10^6 cells/mL) on slide. After air dry, the slides were Wright's-Giemsa stained and air-dried for over 30 mins before examination.

[9] = system: MV4;11 leukemia xenograft; test: Subcutaneous MV4;11 xenograft antitumor study; assay type: in vivo, NOD-SCID mice; details: 15 mg/kg/day i.p. for 10 days; two cohorts (N = 6 and 8; p < 0.01 and 0.05)
Method: (§5) In vivo antitumor activity of compound 1 was evaluated in a commonly used mouse model of MLL-r leukemia, [26]. 10^7 MV4;11 cells in 0.1 mL of saline and Matrigel (1:1) were injected subcutaneously into NOD-SCID mice, which can develop palpable tumors in ~2 weeks.
(§6) In vivo antitumor studies. All of the mouse studies were conducted in strict compliance with an IRB-approved protocol. NOD-SCID mice (4 to 6 weeks old, from Jackson lab) were obtained and maintained under specific pathogen-free conditions. 10^7 MV4;11 cells in medical grade saline and Matrigel (1:1, 0.1 mL) were inoculated subcutaneously and palpable tumors (2-3 mm in diameter) were developed in ~ 2 weeks. Mice were treated with compound 1 (15 mg/kg/day for 10 days) in saline (0.1 mL) administered intraperitoneally. Tumors were measured every 2 days and estimated by using the formula a×b^2/2.

[10] = Tolerability in xenograft study (body weight, overt toxicity); assay type: in vivo
Method: as §5, §6

T3 sequence (Q03111 489-559): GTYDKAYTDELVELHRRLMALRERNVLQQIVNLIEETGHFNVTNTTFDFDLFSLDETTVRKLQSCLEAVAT
Sequence of DOT1L (Q8TEK3 1-472): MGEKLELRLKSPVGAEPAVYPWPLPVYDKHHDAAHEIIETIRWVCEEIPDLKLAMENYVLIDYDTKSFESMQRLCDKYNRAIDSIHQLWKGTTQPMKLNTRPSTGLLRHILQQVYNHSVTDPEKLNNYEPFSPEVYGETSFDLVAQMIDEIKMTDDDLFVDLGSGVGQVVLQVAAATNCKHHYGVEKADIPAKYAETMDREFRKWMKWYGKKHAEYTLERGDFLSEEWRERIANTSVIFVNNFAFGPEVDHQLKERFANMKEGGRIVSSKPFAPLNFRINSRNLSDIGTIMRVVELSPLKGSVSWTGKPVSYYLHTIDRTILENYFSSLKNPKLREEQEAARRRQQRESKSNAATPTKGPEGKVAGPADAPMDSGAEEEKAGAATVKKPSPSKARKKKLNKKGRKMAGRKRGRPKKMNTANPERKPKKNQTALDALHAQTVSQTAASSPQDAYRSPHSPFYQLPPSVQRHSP

## CC(C)(C)c1ccc(-n2cc(C(=O)NC3CCNCC3)nc2-c2ccccc2)cc1 [Compound 1]
[1]
  IC50: 3.5 µM
[2]
  IC50: 2.5 ± 0.1 µM
[3]
  IC50: 3.3 ± 0.3 µM
[4]
  Beads-bound AF9 AHD in pull-down (Western blot): reduced beads-bound AF9 AHD with a similar IC50
[5]
  Inhibition of DOT1L enzyme activity: did not significantly inhibit
[6]
  Expression of MLL target genes HoxA9, Meis1 and Myc: dose-dependently suppressed expression
[7]
  Expression of MLL target genes HoxA9, Meis1 and Myc: dose-dependently suppressed expression
[8]
  Cell phenotype by Giemsa staining: more differentiated phenotype with reduced nucleus
[9]
  Tumor growth: significantly inhibited tumor growth
[10]; 15 mg/kg for Day 1-10
  Body weight: did not cause significant weight losses
[10]; mouse model of MLL-r leukemia, 15 mg/kg
  Overt toxicity: without overt toxicity
